For orientation: melting point means the temperature of the solid-liquid transition.

This note sets out measurements from patent US6969713B2, “Piperidine and piperazine acetamide derivatives” (AstraZeneca AB, priority 1999, dated 2005).

Regarding `C[C@@H]1CN(CC(=O)Nc2ccccc2C(F)(F)F)C[C@H](C)N1c1ncnc2sccc12` [Example 12, cis-2-(3,5-Dimethyl-4-(thieno[2,3-d]pyrimidin-4-yl)piperazin-1-yl]-N-(2-trifluoromethylphenyl)acetamide], the melting point lay in the range of 154 to 155 °C.

Take `Cc1ccccc1NC(=O)CN1CC2CCC(C1)N2c1ncnc2scc(C)c12`: the melting point lay in the range of 199 to 200 °C.

`Cc1ccccc1NC(=O)CN1C[C@@H](C)N(S(=O)(=O)c2cccc(C(N)=O)c2)[C@@H](C)C1` [Example 63, cis-2-[4-(3-Aminocarbonylbenzenesulphonyl)-3,5-dimethylpiperazin-1-yl]-N-(2-methylphenyl)acetamide] registered a melting point of 124 to 125 °C.

In turn, `Cc1ccccc1NC(=O)CN1C[C@@H](C)N(S(=O)(=O)c2cccc(N)c2)[C@@H](C)C1` [Example 57, cis-2-[4-(3-Aminobenzenesulphonyl)-3,5-dimethylpiperazin-1-yl]-N-(2-methylphenyl)acetamide] had a melting point of 202 to 203 °C.

Molecule `Cc1ccccc1NC(=O)CN1CC2CCC(C1)N2S(=O)(=O)c1ccccc1Cl` had a melting point of 170 to 171 °C.

`C[C@@H]1CN(CC(=O)Nc2cccc3ncccc23)C[C@H](C)N1c1ncnc2sccc12` [Example 10] displayed a melting point of 194 to 195 °C.

The molecule `Cc1c(F)cccc1NC(=O)CN1CC2CCC(C1)N2S(=O)(=O)c1ccccc1` had a melting point of 168 to 169 °C.

For `C[C@@H]1CN(CC(=O)Nc2ccccc2Cl)C[C@H](C)N1c1ncnc2c1ncn2C` [Example 8, cis-N-(2-Chlorophenyl)-2-[3,5-dimethyl-4-(9-methyl-9H-purin-6yl)piperazin-1-yl]acetamide], the melting point was in the range of 221 to 222 °C.

As for `CC(=O)Nc1cccc(S(=O)(=O)N2[C@H](C)CN(CC(=O)Nc3ccccc3C)C[C@@H]2C)c1` [Example 62, cis-2-[4-(3-Acetylaminobenzenesulphonyl)-3,5-dimethylpiperazin-1-yl]-N-(2-methylphenyl)acetamide], the melting point lay in the range of 236 to 238 °C.

In turn, `C[C@@H]1CN(CC(=O)Nc2nc3ccccc3n2C)C[C@H](C)N1c1ncnc2sccc12` [Example 49, cis-2-(3,5-Dimethyl-4-(thieno[2,3-d]pyrimidin-4-yl)piperazin-1-yl)-N-(1-methyl-1H-benzoimidazol-2-yl)acetamide] displayed a melting point of 200 °C.

For `O=C1Cc2c(cccc2NC(=O)CN2CC3CCC(C2)N3c2ncnc3sccc23)N1`, the melting point is 265 °C (dec.).

As to `C[C@@H]1CN(CC(=O)Nc2nccc3ccccc23)C[C@H](C)N1c1ncnc2sccc12` [Example 14, cis-2-(3,5-Dimethyl-4-(thieno[2,3-d]pyrimidin-4-yl)piperazin-1-yl)-N-(isoquinolin-1-yl)acetamide], the melting point is 206 to 207 °C.

`Cc1ccccc1NC(=O)CN1C[C@@H](C)N(S(=O)(=O)c2cccc([N+](=O)[O-])c2)[C@@H](C)C1` [Example 56, cis-N-(2-Methylphenyl)-2-[4-(3-nitrobenzenesulphonyl)-3,5-dimethylpiperazin-1-yl]-acetamide] had a melting point of 163 to 164 °C.

The molecule `COc1ccc(Cl)cc1S(=O)(=O)N1C2CCC1CN(CC(=O)Nc1ccccc1C)C2` yielded a melting point of 180 to 181 °C.

The molecule `Cc1ccccc1NC(=O)CN1CC2CCC(C1)N2S(=O)(=O)c1cccc2nonc12` had a melting point of 167 to 168 °C.

`Cc1ccccc1NC(=O)CN1C[C@@H](C)N(S(=O)(=O)c2cccc(C(=O)NCCN)c2)[C@@H](C)C1` [Example 71, cis-2-[4-(2-Aminoethylaminocarbonylbenzenesulphonyl)-3,5-dimethylpiperazin-1-yl]-N-(2-methylphenyl)acetamide] showed a melting point of 90 to 92 °C.

Consider `COc1cccc(S(=O)(=O)N2C3CCC2CN(CC(=O)Nc2ccccc2C)C3)c1`, for which the melting point is 163 to 165 °C.

In turn, `Cc1ccc(NS(C)(=O)=O)cc1NC(=O)CN1CC2CCC(C1)N2c1ncnc2scnc12` gave a melting point of 145 to 187 °C.

`Cc1ccccc1NC(=O)CN1C[C@@H](C)N(S(=O)(=O)c2cccc(NS(C)(=O)=O)c2)[C@@H](C)C1` [Example 64, cis-2-[4-(3-Methanesulphonylaminobenzenesulphonyl)-3,5-dimethylpiperazin-1-yl]-N-(2-methylphenyl)acetamide] showed a melting point of 102 to 103 °C.

Molecule `Cc1ccccc1NC(=O)CN1CC2CCC(C1)N2S(=O)(=O)c1ccc(Cl)s1` showed a melting point of 150 to 152 °C.

Regarding `Cc1cccnc1NC(=O)CN1C[C@@H](C)N(c2ncnc3sccc23)[C@@H](C)C1` [Example 13, cis-2-(3,5-Dimethyl-4-(thieno[2,3-d]pyrimidin-4-yl)piperazin-1-yl)-N-(3-methylpyridin-2-yl)acetamide], the melting point is 157 to 159 °C.

`Cc1cccc(C)c1NC(=O)CN1CCN(c2ncnc3sccc23)C(C)C1` (racemic) [Example 1, (±)-N-(2,6-Dimethylphenyl)-2-(3-methyl-4-(thieno[2,3-d]pyrimidin-4-yl)piperazin-1-yl)acetamide] yielded a melting point of 184 to 185 °C.

For `Cc1ccccc1NC(=O)CN1CC2CCC(C1)N2S(=O)(=O)c1cccc2nsnc12`, the melting point lay in the range of 169 to 170 °C.

In turn, `Cc1c(CO)cccc1NC(=O)CN1C[C@@H](C)N(c2ncnc3sccc23)[C@@H](C)C1` [Example 4, cis-N-[3-Hydroxymethyl-2-methylphenyl]-2-(3,5-dimethyl-4-(thieno[2,3-d]pyrimidin-4-yl)piperazin-1-yl)acetamide] showed a melting point of 203 to 204 °C.

`Cc1ccccc1NC(=O)CN1C[C@@H](C)N(S(=O)(=O)c2cccc(C#N)c2)[C@@H](C)C1` [Example 55, cis-2-[4-(3-Cyanobenzenesulphonyl)-3,5-dimethylpiperazin-1-yl]-N-(2-methylphenyl)acetamide] came in with a melting point of 152 to 153 °C.

Molecule `Cc1ccccc1NC(=O)CN1CC2CCC(C1)N2S(=O)(=O)c1cccc(C#N)c1` returned a melting point of 166 to 168 °C.

Take `CC(=O)Nc1ccc(S(=O)(=O)N2C3CCC2CN(CC(=O)Nc2ccccc2C)C3)cc1`: the melting point lay within 205 to 206 °C.

Turning to `Cc1cccc(C)c1NC(=O)CN1C[C@@H](C)N(c2ncnc3sccc23)[C@@H](C)C1` [Example 2, cis-[2-(3,5-Dimethyl-4-(thieno[2,3-d]pyrimidin-4-yl)piperazin-1-yl)]-N-(2,6-dimethylphenyl)acetamide], the melting point lay in the range of 186 to 189 °C.

Consider `C[C@@H]1CN(CC(=O)Nc2cccc3cnccc23)C[C@H](C)N1c1ncnc2sccc12` [Example 9, cis-2-(3,5-Dimethyl-4-(thieno[2,3-d]pyrimidin-4-yl)piperazin-1-yl)-N-(isoquinolin-5-yl)acetamide], for which the melting point fell in the range of 213 to 216 °C.

Regarding `Cc1ccccc1NC(=O)CN1C[C@@H](C)N(c2ncnc3sccc23)[C@@H](C)C1` [Example 6, cis-2-[3,5-Dimethyl-4-(thieno[2,3-d]pyrimidin-4-yl)piperazin-1-yl]-N-(2-methylphenyl)acetamide], the melting point lay in the range of 174 to 175 °C.

`C[C@@H]1CN(CC(=O)Nc2ccccc2Cl)C[C@H](C)N1c1ncnc2sccc12` [Example 7, cis-N-(2-Chlorophenyl)-2-[3,5-dimethyl-4-(thieno[2,3-d]pyrimidin-4-yl)piperazin-1-yl]acetamide]: the melting point fell in the range of 206 to 207 °C.
